Experiments:
CCKB receptor = biological target: T1, CCKB receptor (Mus musculus, UniProt P56481); assay: CCKB receptor radioligand binding assay in mouse cortical membranes ([125I]-CCK8S); conditions: [125I]-CCK8S 200 pM, 150 min at 21±3°; for Ki: read-out: CCKB pKi (converted)
T1 construct: The cortex was dissected, weighed and homogenised in 40ml ice-cold buffer; tissue Charles River (supplier of the CD1 mice); host or cells: cerebral cortex membranes of male CD1 mice
T1 sequence (P56481 1-453): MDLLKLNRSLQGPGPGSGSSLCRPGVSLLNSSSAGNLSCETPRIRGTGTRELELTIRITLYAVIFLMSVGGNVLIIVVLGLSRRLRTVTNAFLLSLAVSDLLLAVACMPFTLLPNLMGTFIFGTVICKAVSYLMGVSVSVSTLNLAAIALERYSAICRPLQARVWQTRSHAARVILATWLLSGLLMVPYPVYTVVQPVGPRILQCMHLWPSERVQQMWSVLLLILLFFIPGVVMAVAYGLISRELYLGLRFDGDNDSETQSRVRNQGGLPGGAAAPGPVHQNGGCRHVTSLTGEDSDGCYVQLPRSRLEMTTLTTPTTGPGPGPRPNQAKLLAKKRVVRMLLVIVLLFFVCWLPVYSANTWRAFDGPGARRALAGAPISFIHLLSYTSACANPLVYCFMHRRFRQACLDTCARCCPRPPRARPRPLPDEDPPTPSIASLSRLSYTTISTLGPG
Method: The compounds of the examples were tested for binding at the CCKB receptor in mouse cortical membranes by means of a radioligand binding assay. The procedure was as follows:
The whole brains from male mice (CD1 22-25 g; Charles River) were removed and placed in ice-cold buffer (pH7.2 @ 21±3°) of the following composition (mM); 10 HEPES, 130 NaCl, 4.7 KCl, 5 MgCl2, 1 EDTA and containing 0.25g.^-1 bacitracin. The cortex was dissected, weighed and homogenised in 40ml ice-cold buffer using a Teflon-in-glass homogeniser. The homogenate was centrifuged at 39,800g for 20 min at 4°, the supernatant discarded and the pellet resuspended by homogenisation in fresh buffer. The homogenate was recentrifuged (39,800 g; 20 min @ 4°) and the final pellet was resuspended in HEPES buffer to give a tissue concentration of 2 mg.ml^-1 (original wet weight).
The membranes ([…]) were incubated for 150 min at 21±3° in a final volume of 0.5 ml with HEPES buffer containing [^125 I]-CCK8S (0.05 ml; 200 pM NEN 2200 Ci.mmol^-1) and competing compound. Total and non-specific binding of [^125 I]-CCK8S were defined using 0.05 ml of buffer and 0.05 ml of […] L-365,260, respectively. The assay was terminated by rapid filtration through pre-soaked Whatman GF/B filters using a Brandell Cell harvester. The filters were washed (3×3 ml) with ice-cold 50 mM Tris-HCl (pH7.4 @ 4° C.) and bound radioactivity determined by counting (1 min.) in a gamma-counter.

gastrin = biological target: T2, gastrin (Rattus norvegicus, UniProt P30553); assay: gastrin antagonist activity in an immature rat stomach assay (pentagastrin-stimulated acid secretion); conditions: cumulative pentagastrin dose-response curves after 60 min with drug; for Kb: read-out: Gastrin pKB (converted)
T2 construct: The stomach was lowered into a jacketed organ bath containing 40 ml of buffered solution; from tissue; host or cells: isolated perfused whole stomach of immature rats (ca. 21 days old)
T2 sequence (P30553 1-452): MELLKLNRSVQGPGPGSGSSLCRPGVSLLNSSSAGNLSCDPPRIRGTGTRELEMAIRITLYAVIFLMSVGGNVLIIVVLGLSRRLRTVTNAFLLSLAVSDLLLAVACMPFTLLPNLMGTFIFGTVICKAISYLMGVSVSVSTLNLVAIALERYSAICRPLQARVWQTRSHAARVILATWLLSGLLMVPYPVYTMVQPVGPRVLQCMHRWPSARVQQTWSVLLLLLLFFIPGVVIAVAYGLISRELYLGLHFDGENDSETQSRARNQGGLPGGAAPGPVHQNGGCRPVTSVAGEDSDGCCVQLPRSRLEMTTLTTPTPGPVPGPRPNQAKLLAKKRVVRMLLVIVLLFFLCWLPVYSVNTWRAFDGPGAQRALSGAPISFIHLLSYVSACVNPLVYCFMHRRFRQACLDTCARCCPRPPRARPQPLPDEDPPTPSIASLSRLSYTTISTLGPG
Method: The compounds of the examples were also tested for gastrin antagonist activity in an immature rat stomach assay. The procedure was as follows:
The oesophagus of immature rats (33-50 g, ca. 21 days old) was ligated at the level of the cardiac sphincter and the duodenal sphincter was cannulated. The stomach was excised and flushed with ca. 1 ml of unbuffered physiological saline solution. The fundus was punctured and cannulated. A further 4-5 ml of unbuffered solution was flushed through the stomach to ensure the preparation was not leaking. The stomach was lowered into a jacketed organ bath containing 40 ml of buffered solution containing 3×10^-8 M 5-methylfurmethide, maintained at 37° and gassed vigorously with 95% O2 /5% CO2. The stomach was continuously perfused at a rate of 1 ml min^-1 with unbuffered solution gassed with 100% O2 with the perfusate passing over an internally referenced pH-electrode fixed 12 cm above the stomach.
After 120 min of stabilisation the drugs were added directly to the serosal solution in the organ bath and after a further 60 min cumulative pentagastrin dose-response curves were started. Changes in acid secretion were monitored and the curves analysed according to Black et.al., Br. J. Pharmacol., 1985, 86, 581.

Molecule	Ki (CCKB receptor) [nM]	Kb (gastrin) [nM]	CCKB pKi (CCKB receptor)	Gastrin pKB (gastrin)
C[C@@H](NC(=O)[C@H]1CCCN1C(=O)c1cc2ccccc2cc1C(=O)N(C)CC12CC3CC(CC(C3)C1)C2)C(=O)O [Example 12, 2-(2R-(1R-carboxyethylaminocarbonyl)pyrrolidinocarbonyl)-3-(1-adamantanemethyl(N-methyl)aminocarbonyl)-naphthalene]	1260	1260		
C[C@H](NC(=O)[C@H]1CCCN1C(=O)c1cc2ccccc2cc1C(=O)N(C)CC12CC3CC(CC(C3)C1)C2)C(=O)O [Example 13, 2-(2R-(1S-carboxyethylaminocarbonyl)pyrrolidinocarbonyl)-3-(1-adamantanemethyl(N-methyl)aminocarbonyl)-naphthalene]	2000	398		
CN(CC12CC3CC(CC(C3)C1)C2)C(=O)c1cc2ccccc2cc1C(=O)N1CCC[C@@H]1C(=O)O [Example 9, 2-(2R-carboxypyrrolidino-carbonyl)-3-(1-adamantanemethyl(N-methyl)aminocarbonyl)-naphthalene]	251	501		
O=C(O)c1cc(NC(=O)[C@@H](Cc2ccccc2)NC(=O)c2cc3ccccc3cc2C(=O)NCC23CC4CC(CC(C4)C2)C3)cc(C(=O)O)c1 [Example 23, 2-(1R-(3,5-dicarboxyphenylaminocarbonyl) -2-phenylethylaminocarbonyl)-3-(1-adamantanemethylaminocarbonyl)-naphthalene]		39.8		
CN(CC12CC3CC(CC(C3)C1)C2)C(=O)c1cc2ccccc2cc1C(=O)N1CCC[C@@H]1C(=O)NCC(=O)O [Example 14, 2-(2R-carboxymethylaminocarbonylpyrrolidino-carbonyl)-3-(1-adamantanemethyl(N-methyl)aminocarbonyl)-naphthalene]	1000	316		
O=C(O)c1cc(NC(=O)[C@H](Cc2ccc(I)cc2)NC(=O)c2cc3cc[nH]c3cc2C(=O)NCC23CC4CC(CC(C4)C2)C3)cc(C(=O)O)c1 [Example 32, 5-(1S-(3,5-dicarboxyphenylaminocarbonyl)-2-(4-iodophenyl)ethylaminocarbonyl)-6-(1-adamantanemethylaminocarbonyl)-indole]	3.98	0.794		
O=C(O)CNC(=O)[C@H]1CCCN1C(=O)c1cc2ccccc2cc1C(=O)NCC12CC3CC(CC(C3)C1)C2 [Example 11, 2-(2R-carboxymethylaminocarbonylpyrrolidinocarbonyl)-3-(1-adamantanemethylaminocarbonyl)-naphthalene]	1260	251		
C[C@@H](NC(=O)[C@H]1CCCN1C(=O)c1cc2ccccc2cc1C(=O)NCC12CC3CC(CC(C3)C1)C2)C(=O)O [Example 10, 2-(2R-(1R-carboxyethylaminocarbonyl)pyrrolidinocarbonyl)-3-(1-adamantanemethylaminocarbonyl)-naphthalene]	1580	316		
COC(=O)c1cc(NC(=O)[C@H](Cc2ccccc2)NC(=O)c2cc3cc[nH]c3cc2C(=O)NCC23CC4CC(CC(C4)C2)C3)cc(C(=O)OC)c1 [Example 35, 5-(1S-(3,5-dimethoxycarbonylphenylaminocarbonyl)-2-phenylethylaminocarbonyl)-6-(1-adamantanemethylaminocarbonyl)-indole]	63.1	2		

Second part, the molecule after the results:

Ki (CCKB receptor) [nM]	Kb (gastrin) [nM]	CCKB pKi (CCKB receptor)	Gastrin pKB (gastrin)	Molecule
		7.0	7.1	3-(1S-(3,5-dicarboxyphenylaminocarbonyl)-2-phenylethylaminocarbonyl)-2-(1-adamantanemethylaminocarbonyl)-1-phenylnaphthalene and its regioisomer with groups at positions 2 and 3 reversed [Example 56]
20	15.8			CC(=O)NS(=O)(=O)c1cccc(NC(=O)[C@H](Cc2ccccc2)NC(=O)c2cc3[nH]cnc3cc2C(=O)NCC23CC4CC(CC(C4)C2)C3)c1 [Example 137, 5-(1S-(3-acetylaminosulphonylphenylaminocarbonyl)-2-phenylethylaminocarbonyl)-6-(1-adamantanemethylaminocarbonyl)-benzimidazole]
		8.4	9.1	O=C(O)c1cc(NC(=O)[C@H](Cc2ccccc2F)NC(=O)c2cc3[nH]cnc3cc2C(=O)NCC23CC4CC(CC(C4)C2)C3)cc(C(=O)O)c1 [Example 63, 5-(1S-(3,5-dicarboxyphenylaminocarbonyl)-2-(2-fluorophenyl)ethylaminocarbonyl)-6-(1-adamantanemethylaminocarbonyl)-benzimidazole]
		7.3	8.2	5-(1S-(3,5-dicarboxyphenylaminocarbonyl)-5-aminopentylaminocarbonyl)-6-(1-adamantanemethylaminocarbonyl)-indole and regioisomer with substituents at positions 5 and 6 reversed [Example 65]
10	25.1			O=C(O)c1cc(NC(=O)[C@H](Cc2ccccc2)NC(=O)c2cc3c(cc2C(=O)NCC24CC5CC(CC(C5)C2)C4)[nH]c2ccccc23)cc(C(=O)O)c1 [Example 51, 3-(1S-(3,5-dicarboxyphenylaminocarbonyl)-2-phenylethylaminocarbonyl)-2-(1-adamantanemethylaminocarbonyl)-carbazole]
15.8	79.4			O=C(NS(=O)(=O)c1cccc(NC(=O)[C@H](Cc2ccccc2)NC(=O)c2cc3[nH]cnc3cc2C(=O)NCC23CC4CC(CC(C4)C2)C3)c1)c1ccccc1 [Example 139, 5-(1S-(3-benzoylaminosulphonylphenylaminocarbonyl)-2-phenylethylaminocarbonyl)-6-(1-adamantanemethylaminocarbonyl)-benzimidazole]
		7.5	7.1	5-(1S-(3,5-methoxyaminocarbonylphenylaminocarbonyl)-2-phenylethylaminocarbonyl)-6-(1-adamantanemethylaminocarbonyl)-indole and regioisomer with substituents at positions 5 and 6 reversed [Example 38]
